# Data published in patent US8058462B2, “Ligand modified poly oxo-hydroxy metal ion materials, their uses and processes for their preparation” (Medical Research Council, priority 2007, dated 2011).
# How the values were obtained:
# Assay type in all cases: physicochemical
# [1] = In vitro gastrointestinal digestion assay (simulated stomach and duodenum); conditions: pH 1.2
# Experimental: An amount of the solid ligand-modified poly oxo-hydroxy ferric iron materials or control iron materials namely ferrous sulphate, ferric chloride, or unmodified ferric oxo-hydroxide, equivalent to 60 mg elemental iron, were added to a synthetic gastric (stomach) solution (50 mL of 2 g/L NaCl, 0.15 M HCl and 0.3 mg/mL porcine pepsin) and incubated at 37° C. for 30 minutes with radial shaking. […] The mixture was incubated at 37° C. for 60 min with radial shaking. Homogeneous Aliquots (1 mL) were collected at different time points during the process and centrifuged at 13,000 rpm for 10 minutes to separate the aggregate and aquated phases. The supernatant was analysed for iron content by ICPOES. […] The mass of remaining material (i.e. the wet pellet) was recorded. Concentrated HNO3 was added to this wet pellet and the new mass recorded. […] The starting amount of iron was calculated from the iron in the wet pellet plus the iron in the supernatant. To differentiate between soluble iron and aquated particulate iron in the supernatant, at each time point, this fraction was also ultrafiltered (Vivaspin 3,000 Da molecular weight cut-off polyethersulfone membrane, Sartorius Stedium Biotech GmbH, Goettingen, Germany) and again analysed by ICPOES. […]
# [2] = Screening assay: formation (precipitation) of solid poly oxo-hydroxy iron in presence of ligand; conditions: ratios 1:1 to 1:5
# Experimental: A series of dietary ligands was tested in a screening assay for their effects on the formation of solid ligand-modified poly oxo-hydroxy metal ion materials. Briefly, in a centrifuge tube, a fixed volume of stock solution of ferric iron (400 mM FeCl3 with 50 mM MOPS, pH 1.4) was mixed with varying volumes of a stock solution of ligand (400 mM with the exception of maltol which was 200 mM, plus MOPS at 50 mM and 0.9% NaCl) to obtain the desired metal:ligand ratio. The volumes were then equally adjusted to parity with a solution of 50 mM MOPS and 0.9% NaCl. […] A small aliquot was taken to confirm the starting iron concentration and then the pH was raised to ˜6.5 by drop-wise addition of concentrated NaOH to avoid high volume changes. After centrifugation at 2500 rpm for 10 minutes, an aliquot of supernatant was taken to analyse the iron remaining in solution. The remaining supernatant was discarded and a fixed volume of dissolution buffer at pH 6 (MOPS10 mM) or pH 4 (Acetic acid 10 mM) was then added to the wet solid of each tube and incubated overnight at room temperature. The tubes were then centrifuged (2500 rpm for 10 minutes) and an aliquot of supernatant taken to determine the iron that was disaggregated. The iron concentration in each aliquot was measured by ICPOES analysis.
# Initially, the ligands were all tested using the screening assay described above at ratios of 1:1 to 1:5 and classified in three groups.
# [3] = Screening assay: re-dissolution of the wet solid in pH 6 and pH 4 buffers; conditions: solid formed with the ligand
# Experimental: A series of dietary ligands was tested in a screening assay for their effects on the formation of solid ligand-modified poly oxo-hydroxy metal ion materials. […] The volumes were then equally adjusted to parity with a solution of 50 mM MOPS and 0.9% NaCl. […] After centrifugation at 2500 rpm for 10 minutes, an aliquot of supernatant was taken to analyse the iron remaining in solution. […] The iron concentration in each aliquot was measured by ICPOES analysis.
smiles,measurement,setting,value
"O=S(=O)([O-])[O-].[Fe+2] [Ferrous sulphate, ferrous sulphate]",gastric disaggregation and dissolution profile (in words),[1],disaggregates and dissolves very well
NC(=O)CC[C@H](N)C(=O)O [glutamine],Ligand group by effect on the amount of solid material formed,[2],intermediate ligands
O=C(O)CC(O)C(=O)O (centres unmarked) [malic acid],Ligand group by effect on the amount of solid material formed,[2],intermediate ligands
Cc1occc(=O)c1O [maltol],re-dissolution of the iron at pH 6.0 (in words),[3],did not promote any re-dissolution
O=C(O)C(O)C(O)C(=O)O (centres unmarked) [tartaric acid],Ligand group by effect on the amount of solid material formed,[2],intermediate ligands
